# Reference: patent US9682993B2, “Anticancer compounds” (ST. JUDE CHILDREN'S RESEARCH HOSPITAL, priority 2012, dated 2017)
# Assays:
# [1] = tested on: MDM2 alternative splicing in Rh18 cells; assay: In vitro alternative splicing assay (MDM2, RT-PCR); format: cell-based; conditions: Rh18, 8 h, PCR (FIG. 9)
# Experimental: Briefly, following an 8 h exposure of exponentially growing cells to drug, total RNA was isolated using TRIzol reagent (Invitrogen, Carlsbad, Calif.). Total RNA (1 μg) was used to convert the mRNA to cDNA by using random primers, Oligo(dT)16 and Omniscript Reverse Transcription Kit (Qiagen, Germantown, Md.). PCR analyses were performed using specific oligonucleotides (see Table I) and standard amplification protocols. PCR products were separated by agarose gel electrophoresis, visualized by ethidium bromide staining on an UV transilluminator, and recorded. PCR band sizes were calculated by comparing them to the standard EZ Load 100-bp PCR Molecular Ruler (BioRad Laboratories, Hercules, Calif.).
# [2] = tested on: SK-MEL-2 xenograft tumors; assay: In vivo tumor xenograft study; set-up: species or system C.B-17 scid mice
# Experimental: Xenograft tumors were first established from an SK-MEL-2 cell culture at the St. Jude Children's Research Hospital Xenograft Core. After these tumors were established as a mouse xenograft model, they were routinely maintained in the C.B-17 scid strain (Taconic Farms, Germantown, N.Y.). Experimental animals were prepared by transplanting small pieces of dissected tumors from donor animals into recipient mice. All animal studies were performed in accordance with the St. Jude Children's Research Hospital Animal Care and Use Committee. SK-MEL-2 xenograft tumors were transplanted into male C.B-17 scid mice on Day −21. On Days −7 to −5, a jugular vein catheter was surgically implanted into each mouse. […] Infusions were carried out by placing the animals inside a continuous infusion system (Instech Laboratories, Plymouth Meeting, Pa.), and delivering the vehicle or drug solution via the jugular catheter at a rate of 4 μL/min with a SP230iw syringe pump (WPI, Sarasota, Fla.). […] Tumors were continuously measured during and after infusion periods, 5 times per week (weekdays). Tumor volumes were determined based on the following equation: Tuvol=(δ1/2+δ2/2)^1.5708, where δ1 and δ2 are diameters measured with a caliper at right angles of each other. The size of the tumors ranged from 0.2 to 0.5 cm^3 at the times the infusions were initiated.
# The efficacy of compound 20 in the inhibition of tumor growth in mice was evaluated using the methods as described herein above. Thus, SK-MEL-2 tumors were transplanted into male C.B-17 scid mice. The animals were subsequently infused over 4 h with either vehicle (8 mice) or compound 20 (9 mice) for 5 consecutive days.
# [3] = tested on: HeLa; assay: Drug combination assay, HeLa; format: cell-based; conditions: HeLa cells; combined with AUDA (15 μM)
# Experimental: Preliminary cytotoxic screenings for each drug used in drug combination assays were performed to determine their cytotoxic dose range. […] Eight concentrations were established by 1:3 serial dilutions of the single drugs and their combinations with the splicing modulators. All drug concentrations were evaluated in triplicate in 96-well cell culture plates. Assays of individual drugs and drug combinations were run on the same tissue culture plate. Cell viability was determined using the CellTiter-Glo reagent. Drug interactions, in terms of synergism, additive effect, or antagonism, were based on the drugs' Combination Index (CI) (Chou et al., Adv. Enzyme Regul. 1984, 22, 27).
# Luminescence data obtained from the cell viability determinations were formatted per the requirements of the analytical software (viability data range: >0 and <1). The formatted data were analyzed with the software CalcuSyn 2.1 (Biosoft, Cambridge, UK), which provides quantitative CI values for the drug interaction analyses (see ranges in Supplementary Table S2). […] Therefore, in these two cases the drug interaction was evaluated by comparing the IC50 value of Sudemycin with that of the IC50 values resulting from the serial dilutions of the splicing modulator combined with a constant dose of the non-toxic drug.
# [4] = 50 mg/kg over 4 h, once a day for 5 days
smiles,measurement,setting,value
"CNC(=O)O[C@@H](C)/C=C\C(=O)N[C@H]1CC[C@@H](C/C=C(C)/C=C/[C@@H]2C[C@]3(CO3)CC(C)(C)O2)CC1 [compound 20, (S,Z)-5-(((1R,4R)-4-((2E,4E)-5-((3R,5S)-7,7-Methyl-1,6-Dioxaspiro[2.5]Octan-5-Yl)-3-Methylpenta-2,4-Dien-1-Yl)Cyclohexyl)Amino)-5-Oxopent-3-En-2-Yl Methylcarbamate]",alternative MDM2 splicing,[1],induction of alternative MDM2 splicing
same,inhibition of tumor growth during the infusion period,[2]; [4],100%
same,inhibition of tumor growth subsequent to the dosing period,[2]; [4],significant inhibition
same,fatalities or behavioral changes versus control infusion,[2]; infusion over 4 h for 5 consecutive days,No differences in fatalities or behavioral changes
same,effect of soluble epoxide hydrolase inhibition on IC50,[3],improves the IC50
